system: T1, IfCelS12A; test: hydrolysis kinetics, Lineweaver-Burk plot; type: biochemical, Iocasia fonsfrigidae; conditions: 50 mM Tris-HCl pH 7.0, 50 °C, 10 min, 0.5 μM enzyme
T1 construct: tag removal not described
From the text: hydrolysis kinetics, Lineweaver-Burk plot on IfCelS12A

How did the Km turn out when `OC[C@H]1O[C@@H](O[C@H]2[C@H](O)[C@@H](O)[C@H](O[C@H]3[C@H](O)[C@@H](O)[C@H](O[C@H]4[C@H](O)[C@@H](O)C(O)O[C@@H]4CO)O[C@@H]3CO)O[C@@H]2CO)[C@H](O)[C@@H](O)[C@@H]1O` (stereo partly drawn) [G4, Cellotetraose] was run?
Its Km is 250 µM.

With `OC[C@H]1O[C@@H](O[C@H]2[C@H](O)[C@@H](O)[C@H](O[C@H]3[C@H](O)[C@@H](O)[C@H](O[C@H]4[C@H](O)[C@@H](O)[C@H](O[C@H]5[C@H](O)[C@@H](O)C(O)O[C@@H]5CO)O[C@@H]4CO)O[C@@H]3CO)O[C@@H]2CO)[C@H](O)[C@@H](O)[C@@H]1O` (stereo partly drawn) [G5, Cellopentaose] as the molecule, how does the Km read?
The Km was 270 µM.

Which Km does the source give for `OC[C@H]1O[C@@H](O[C@H]2[C@H](O)[C@@H](O)[C@H](O[C@H]3[C@H](O)[C@@H](O)[C@H](O[C@H]4[C@H](O)[C@@H](O)[C@H](O[C@H]5[C@H](O)[C@@H](O)[C@H](O[C@H]6[C@H](O)[C@@H](O)C(O)O[C@@H]6CO)O[C@@H]5CO)O[C@@H]4CO)O[C@@H]3CO)O[C@@H]2CO)[C@H](O)[C@@H](O)[C@@H]1O` (stereo partly drawn) [G6, Cellohexaose] here?
The Km was 390 µM.

— publication PMC10774164, “Hydrolysis of ionic liquid–treated substrate with an Iocasia fonsfrigidae strain SP3-1 endoglucanase” (Applied Microbiology and Biotechnology, 2024)
